{
  "source": "patent US7763644B2",
  "about": "“Imidazole derivatives, processes for preparing them and their uses” (UCB Pharma, S.A., priority 2003, dated 2010)",
  "key": {"hSV2C [1]": {"molecular_target": "T1, hSV2C (Homo sapiens, UniProt Q496J9)", "T1 construct": "expressed in transfected cells; host or cells: COS-7 (transient transfection)", "T1 sequence (Q496J9 1-727)": "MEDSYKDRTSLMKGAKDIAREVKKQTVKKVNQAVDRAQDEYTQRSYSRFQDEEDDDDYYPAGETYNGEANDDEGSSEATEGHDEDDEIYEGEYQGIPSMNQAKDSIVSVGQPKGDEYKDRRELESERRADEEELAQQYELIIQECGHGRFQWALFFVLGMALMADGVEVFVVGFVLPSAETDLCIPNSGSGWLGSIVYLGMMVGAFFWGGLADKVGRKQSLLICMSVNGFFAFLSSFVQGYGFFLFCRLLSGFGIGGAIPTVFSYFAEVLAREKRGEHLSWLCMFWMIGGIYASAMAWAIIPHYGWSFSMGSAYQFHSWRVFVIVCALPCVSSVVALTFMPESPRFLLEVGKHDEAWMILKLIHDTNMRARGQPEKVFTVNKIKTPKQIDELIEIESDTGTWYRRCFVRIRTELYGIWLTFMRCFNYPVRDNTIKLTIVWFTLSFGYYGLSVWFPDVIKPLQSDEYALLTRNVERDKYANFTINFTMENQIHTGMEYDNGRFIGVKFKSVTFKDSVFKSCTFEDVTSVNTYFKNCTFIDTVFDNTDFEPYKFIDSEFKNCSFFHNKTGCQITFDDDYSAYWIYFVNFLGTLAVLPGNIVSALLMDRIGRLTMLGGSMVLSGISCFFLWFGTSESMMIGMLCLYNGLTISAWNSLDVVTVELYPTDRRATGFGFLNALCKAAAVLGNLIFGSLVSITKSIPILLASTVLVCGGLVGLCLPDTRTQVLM", "test": "IC50 of unlabelled ligands against SV2C, [^3H]-compound 7 as probe", "assay_type": "binding", "details": "[^3H]-compound 7 as labeled probe, FIG. 6", "text": "(M). Depicted are the IC50 curves of compound 7 binding to hSV2A (x) and hSV2C (□), and compound Z binding to hSV2A (▪) and hSV2C (⋄).\n(§1) This confirms that labeled-compound Z has poor affinity for utilizing as a probe against SV2C, and that labeled-compound 7 is a preferred probe to utilize in screening against SV2C."}, "LBS": {"molecular_target": "T2, LBS (Rattus norvegicus, UniProt Q02563)", "T2 construct": "from tissue; host or cells: rat brain (crude membranes)", "T2 sequence (Q02563 whole entry)": "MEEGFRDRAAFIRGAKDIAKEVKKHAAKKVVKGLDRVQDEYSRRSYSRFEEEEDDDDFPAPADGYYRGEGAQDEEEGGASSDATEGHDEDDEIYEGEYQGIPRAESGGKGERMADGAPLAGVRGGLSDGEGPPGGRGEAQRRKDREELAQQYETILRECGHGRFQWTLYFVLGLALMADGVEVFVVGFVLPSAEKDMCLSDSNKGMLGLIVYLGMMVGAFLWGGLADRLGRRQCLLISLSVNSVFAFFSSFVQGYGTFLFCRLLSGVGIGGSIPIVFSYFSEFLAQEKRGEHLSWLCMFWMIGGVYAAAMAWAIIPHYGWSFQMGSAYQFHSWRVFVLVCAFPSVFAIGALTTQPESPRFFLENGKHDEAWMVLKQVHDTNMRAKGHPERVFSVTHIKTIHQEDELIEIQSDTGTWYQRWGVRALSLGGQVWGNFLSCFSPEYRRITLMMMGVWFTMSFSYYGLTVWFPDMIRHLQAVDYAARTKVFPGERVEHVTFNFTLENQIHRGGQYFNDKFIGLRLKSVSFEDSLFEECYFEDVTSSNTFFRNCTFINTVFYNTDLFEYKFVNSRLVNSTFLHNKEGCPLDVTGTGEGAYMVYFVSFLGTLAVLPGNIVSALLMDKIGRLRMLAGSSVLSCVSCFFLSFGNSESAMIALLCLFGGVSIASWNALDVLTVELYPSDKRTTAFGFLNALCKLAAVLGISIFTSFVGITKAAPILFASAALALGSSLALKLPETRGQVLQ", "test": "Competition binding curves against [^3H]-compound 7, rat brain membranes", "experimental": "FIGS. 2a and 2b depict competition binding curves showing that compound 7 binds to LBS with about 30 fold higher affinity than levetiracetam. […] (M). Test drugs are levetiracetam (2a) and compound 7 (2b).\nBinding experiments were conducted on crude rat brain membranes at 4° C. as described in Noyer M. et al. (Euro. J. Pharmacol. (1995), 286, 137-146). Incubation time for equilibrium studies was 120 min. […] The Bmax being similar to the value estimated using [^3H]-L059 as radioligand in similar membrane preparations (5 pmol/mg protein)."}, "hSV2C [2]": {"molecular_target": "T1, hSV2C", "test": "Radioligand binding to COS-7 cells transfected with SV2C", "details": "displaced by excess levetiracetam, FIG. 5", "text": "as §1"}, "human SV2A": {"molecular_target": "human SV2A (Homo sapiens, UniProt Q7L0J3)", "sequence (Q7L0J3 whole entry)": "as the sequence (Q02563 whole entry) above, with E53D, A62S, A71T, D144E, T154A, S440G, A482S, V572I, L634M counted along it", "test": "Radioligand binding to SV2A under standard conditions", "text": "as §1"}, "LBS/SV2A": {"molecular_target": "T3, LBS/SV2A (Rattus norvegicus, UniProt Q02563)", "T3 construct": "from tissue; host or cells: rat brain (crude membranes)", "T3 sequence (Q02563 whole entry)": "as the sequence (Q02563 whole entry) above", "test": "Photolabelling of LBS in rat brain membranes, SDS-PAGE", "assay_type": "binding", "details": "UV irradiated rat brain membranes, gel slicing", "text": "Y-axis represents the radioactivity (DPM) in gel slices and X-axis represents the gel slice number. Each number and arrow in the graph represents the position and the size in kilodaltons of molecular weight standards.\nThis example provides a photoactivable ligand for labelling SV2A/LBS and its detection in biological samples. This ligand was designed to cross-link to the LBS/SV2A with an azidophenyl motif capable of forming a covalent complex with the protein upon UV light irradiation."}, "untransfected cells": {"system": "untransfected cells", "test": "Radioligand binding to untransfected COS-7 cells", "details": "FIG. 5, bars 2"}},
  "note": "pKi: −log10 of the molar value. “Also recorded” adds a separate entry of the source.",
  "data": [
    {"compound": "[N-]=[N+]=Nc1c(F)ccc(C2CC(=O)N(Cn3ccnc3)C2)c1F", "note": "(single isomer, unassigned; (+)) [compound 7, (+)-4-(3-azido-2,4-difluorophenyl)-1-(1H-imidazol-1-ylmethyl)pyrrolidin-2-one]", "values": [
      {"measurement": "affinity to SV2C compared with SV2A (IC50 curves)", "setting": "hSV2C [1]", "result": "equivalent affinities"},
      {"measurement": "fold higher affinity for LBS than levetiracetam (L059)", "setting": "LBS; FIG. 2", "result": "about 30 fold"},
      {"measurement": "pKi", "setting": "LBS; rat brain membranes", "result": 7.50}
    ]},
    {"compound": "CC[C@@H](C(N)=O)N1CC(c2cccc(N=[N+]=[N-])c2)CC1=O", "note": "(stereo partly drawn) [[^3H]-compound Z, reference compound]", "values": [
      {"measurement": "binding of radioligand to SV2C expressed in COS-7 cells", "setting": "hSV2C [2]", "result": "absence of specific binding; also recorded: lack of binding"},
      {"measurement": "binding of radioligand to SV2A", "setting": "human SV2A", "result": "binds well"}
    ]},
    {"compound": "CC[C@@H](C(N)=O)N1CC(c2cccc(N=[N+]=[N-])c2)CC1=O", "note": "(stereo partly drawn) [compound Z, (2S)-2-[4-(3-azidophenyl)-2-oxopyrrolidin-1-yl]butanamide]", "values": [
      {"measurement": "affinity to SV2C compared with SV2A (IC50 curves)", "setting": "hSV2C [1]", "result": "different affinities; also recorded: much weaker affinity"}
    ]},
    {"compound": "[^3H]-(+)-4-(3-azido-2,4-difluorophenyl)-1-(1H-imidazol-1-ylmethyl)pyrrolidin-2-one [[^3H]-compound 7]", "values": [
      {"measurement": "binding of radioligand to SV2C expressed in COS-7 cells", "setting": "hSV2C [2]", "result": "specific binding; also recorded: binds well"},
      {"measurement": "size of the protein the radiolabel incorporates into", "setting": "LBS/SV2A", "result": 90, "unit": "kDa"},
      {"measurement": "specific binding of radioligand in untransfected cells", "setting": "untransfected cells", "result": "no specific binding"}
    ]}
  ]
}
